From patent US5043326A, “Inclusion complex of 7-isopropoxy-isoflavon formed with cyclodextrin, the preparation thereof and pharmaceutical compositions containing these compounds as active ingredients” (priority 1985, dated 1991)
Values after ≈ are worked out from the molar mass of the structure shown. One block for each compound: values may come before it.

Experiments:
[1] = Urinary excretion in rats, 24 h (HPLC); type: in vivo, CFY male rats; details: rat urine
Method: (§1) To the resorption tests CFY male rats weighing 170-200 g were used. After a 16-hour fasting period, Ipriflavon in a dose of 25 mg/kg (group A), Ipriflavon-β-cyclodextrin inclusion complex prepared according to Example 1 (group B) and Ipriflavon-β-cyclodextrin mixture (group C)--both containing the β-cyclodextrin in equimolar ratio to the active ingredient--were administered, thereafter rat-food and water were given "ad libitum" to the animals.
(§2) The materials to be tested were mixed for 5 minutes in 2 ml of 1% methylcellulose solution and administered by the aid of a stomach tube. The plasma samples were collected 10, 30 minutes and 1, 2 and 4 hours after the treatment using mortal haemorrhage after transecting the Vena femoralis of the animals anasthesied with ether. The blood samples were charged into heparinized tubes, centrifuged, nutsch-filtered and stored deep-freezed, in vial until further use.
In order to collect urinary samples, after treatment the animals were placed into individual metabolism vessel and urine and faeces were separately collected for 24 hours. The urinary samples were stored deep-freezed until further use. The concentration of the unchanged Ipriflavon and its main metabolite (7-hydroxy-isoflavon) in the urinary and the plasma samples was followed by HPLC. […]

[2] = design: species or system CFY male rats; details: rat, in vivo, po, 25 mg/kg, 1440 min
[3] = design: species or system CFY male rats; details: rat, in vivo, po
Method: as §1
as §2, with “The blood samples were charged into heparinized tubes, centrifuged, nutsch-filtered and stored deep-freezed, in vial until further use.” left out
To analyse the plasma samples, to 1 ml of plasma 1 ml acetate-buffer (pH=5) and β-glucuronidase (arylsulfonase) enzyme (100 FU) diluted to 10-fold with 10 μl of distilled water were added and incubated at 37° C. for 24 hours. […] The organic phase was centrifuged,evaporated, the residue was dissolved in 100 μl of eluent and 50 μl of this solution were injected and measured. […]
In Table IV the concentration values of unchanged Ipriflavon and in Table V the concentration values of the main metabolite determined in the blood of animals are shown. […]

[4] = cited from earlier work
[5] = physchem; type: physicochemical; details: for Concentration of dissolved Ipriflavon: 37° C.
Method: To carry out the dissolution tests 250 ml of distilled water were charged into a 500 ml flask and heated to 37° C. Thereafter the product in an amount corresponding to 50 mg of active ingredient was added then the suspension thus obtained was stirred at 1000 rpm using a magnetic stirrer. At fixed intervals 2-6 ml of samples were taken and filtered on glass-filter and after diluting, the filtrates were measured photometrically in an 1:1 mixture of water:ethanol.

[6] = cited from earlier work; remark: listed apart in the source
[7] = Resorption test in rats: plasma level of unchanged Ipriflavon (HPLC); design: species or system CFY male rats; details: rat, in vivo, po, 25 mg/kg, 1440 min
[8] = Solubility of Ipriflavon in aqueous cyclodextrin solutions (4 days agitation, 25° C., photometric); type: physicochemical
Method: One of the evidence of the formation of inclusion complex between Ipriflavon and cyclodextrin is that the cyclodextrin increases the solubility of Ipriflavon in aqueous solutions. In order to determine this property, 10 mg of Ipriflavon, cyclodextrin in different amounts and 5 ml of distilled water were charged into 10 ml test tubes. After closing, the tubes were agitated for 4 days at 25° C. at 325 rpm, thereafter the samples were filtered on a G4 glass-filter and the filtrates were photometrically analysed in 50% aqueous ethanol solution.

[9] = cited from earlier work; remark: listed apart in the source
[10] = Resorption test in rats: plasma level of unchanged Ipriflavon (HPLC); type: in vivo, CFY male rats; details: rat
Method: as §1, §2
In order to collect urinary samples, after treatment the animals were placed into individual metabolism vessel and urine and faeces were separately collected for 24 hours. The urinary samples were stored deep-freezed until further use. The concentration of the unchanged Ipriflavon and its main metabolite (7-hydroxy-isoflavon) in the urinary and the plasma samples was followed by HPLC.
To carry out the HPLC, liquid chromatography of typ RP-18 and LiChrosorb reverse phase column (grain size in case of plasma sample: 10 μm and in case of urinary samples: 5 μm) were used. Flow velocity of eluent: 1.5 ml/min, wave length of UV detector: 254 nm, paper-velocity: 0.2 cm/min.
In case of plasma samples a mixture of 0.05M acetate buffer (pH=3):acetonitrile=60:40 and in case of urinary samples a mixture of acetate buffer:acetonitril=55:45 were used as eluent. The internal standard was ethanolic solution of 2-methyl-7-methoxy-4'-nitro-isoflavon (100 μg/ml) and to the calibration, solutions comprising 100 μg/ml and 10 μg/ml of 7-hydroxy-isoflavon in methanol were used.
To analyse the plasma samples, to 1 ml of plasma 1 ml acetate-buffer (pH=5) and β-glucuronidase (arylsulfonase) enzyme (100 FU) diluted to 10-fold with 10 μl of distilled water were added and incubated at 37° C. for 24 hours. After incubation, 50 μl of 2N NaOH were added and the mixture was extracted with benzene and centrifuged. The organic phase was separated, the aqueous phase was made acidic with […] of 1N HCl, and after adding 50 μl of internal standard solution it was repeatedly extracted with 8 ml benzene. The organic phase was centrifuged,evaporated, the residue was dissolved in 100 μl of eluent and 50 μl of this solution were injected and measured.
Equation of the calibration curve: y=8.2x-0.08; correlation coefficient: 0.9999.
In Table IV the concentration values of unchanged Ipriflavon and in Table V the concentration values of the main metabolite determined in the blood of animals are shown. To group A Ipriflavon per se, to group B the inclusion complex according to the invention and to group C the mixture of Ipriflavon and β-cyclodextrin were administered.

[11] = in vivo, po, 25 mg/kg, Plasma-level of unchanged Ipriflavon

quantity of main metabolite of the total quantity of the metabolite [1]: 50-55%
Compound: O=c1c(-c2ccccc2)coc2cc(O)ccc12 [7-hydroxy-isoflavon]

Plasma-level of main metabolite (7-hydoxy-isoflavon) [2]: 0 µg/mL
plasma level of main metabolite [3]: 200 to 1000 ng/mL
Concentration of dissolved Ipriflavon ([5]; 1 min, distilled water): 435 ng/mL
Concentration of dissolved Ipriflavon ([5]; 2 min, distilled water): 327 ng/mL
Concentration of dissolved Ipriflavon ([5]; 3 min, distilled water): 401 ng/mL
Concentration of dissolved Ipriflavon ([5]; 5 min, distilled water): 507 ng/mL
Concentration of dissolved Ipriflavon ([5]; 10 min, distilled water): 882 ng/mL
Concentration of dissolved Ipriflavon ([5]; 15 min, distilled water): 1123 ng/mL
Concentration of dissolved Ipriflavon ([5]; 20 min, distilled water): 1197 ng/mL
Concentration of dissolved Ipriflavon ([5]; 30 min, distilled water): 1423 ng/mL
Concentration of dissolved Ipriflavon ([5]; 40 min, distilled water): 1508 ng/mL
Concentration of dissolved Ipriflavon ([5]; 60 min, distilled water): 1621 ng/mL
Concentration of dissolved Ipriflavon ([5]; 90 min, distilled water): 1525 ng/mL
Concentration of dissolved Ipriflavon ([5]; 120 min, distilled water): 1482 ng/mL
solubility ([5]; distilled water, water): ~1.5 µg/mL (≈ 5.35 µM)
time to reach the saturation value ([5]; free active ingredient): 40 to 50 min
Plasma-level of unchanged Ipriflavon [7]: 0 µg/mL
solubility at 96 h ([8]; 12% aqueous alpha-cyclodextrin, solubility of Ipriflavon in α-cyclodextrin solution): 20 to 22 µg/mL (≈ 71.3 to 78.5 µM)
increase of solubility in DIMEB ([8]; 15% DIMEB): 1770 -fold
increase of solubility in TRIMEB ([8]; 15% TRIMEB): 300 -fold
solubility at 96 h ([8]; 15% aqueous dimeb, solubility in DIMEB solution): 1700 to 2000 µg/mL (≈ 6060 to 7130 µM)
solubility at 96 h ([8]; 15% aqueous trimeb, solubility in TRIMEB solution): 440 µg/mL (≈ 1570 µM)
solubility at 96 h ([8]; aqueous α-cd 11 mg/ml, Solubility of Ipriflavon): 4.12 µg/mL (≈ 14.7 µM)
solubility at 96 h ([8]; aqueous α-cd 13 mg/ml, Solubility of Ipriflavon): 4.68 µg/mL (≈ 16.7 µM)
solubility at 96 h ([8]; aqueous α-cd 15 mg/ml, Solubility of Ipriflavon): 5.08 µg/mL (≈ 18.1 µM)
solubility at 96 h ([8]; aqueous α-cd 20 mg/ml, Solubility of Ipriflavon): 6.1 µg/mL (≈ 21.8 µM)
solubility at 96 h ([8]; aqueous α-cd 30 mg/ml, Solubility of Ipriflavon): 8.19 µg/mL (≈ 29.2 µM)
solubility at 96 h ([8]; aqueous α-cd 40 mg/ml, Solubility of Ipriflavon): 9.63 µg/mL (≈ 34.4 µM)
solubility at 96 h ([8]; aqueous α-cd 70 mg/ml, Solubility of Ipriflavon): 14.8 µg/mL (≈ 52.7 µM)
solubility at 96 h ([8]; aqueous α-cd 90 mg/ml, Solubility of Ipriflavon): 18.2 µg/mL (≈ 65.1 µM)
solubility at 96 h ([8]; aqueous α-cd 100 mg/ml, Solubility of Ipriflavon): 21.6 µg/mL (≈ 77.2 µM)
solubility at 96 h ([8]; aqueous α-cd 110 mg/ml, Solubility of Ipriflavon): 19 µg/mL (≈ 67.9 µM)
solubility at 96 h ([8]; aqueous α-cd 120 mg/ml, Solubility of Ipriflavon): 23.6 µg/mL (≈ 84.4 µM)
solubility at 96 h ([8]; aqueous β-cd 1 mg/ml, Solubility of Ipriflavon): 2.52 µg/mL (≈ 8.99 µM)
solubility at 96 h ([8]; aqueous β-cd 3 mg/ml, Solubility of Ipriflavon): 7.03 µg/mL (≈ 25.1 µM)
solubility at 96 h ([8]; aqueous β-cd 5 mg/ml, Solubility of Ipriflavon): 11.4 µg/mL (≈ 40.8 µM)
solubility at 96 h ([8]; aqueous β-cd 7 mg/ml, Solubility of Ipriflavon): 15.9 µg/mL (≈ 56.8 µM)
solubility at 96 h ([8]; aqueous β-cd 9 mg/ml, Solubility of Ipriflavon): 19.5 µg/mL (≈ 69.6 µM)
solubility at 96 h ([8]; aqueous β-cd 11 mg/ml, Solubility of Ipriflavon): 15.2 µg/mL (≈ 54.3 µM)
solubility at 96 h ([8]; aqueous β-cd 13 mg/ml, Solubility of Ipriflavon): 15.5 µg/mL (≈ 55.2 µM)
solubility at 96 h ([8]; aqueous β-cd 15 mg/ml, Solubility of Ipriflavon): 15.8 µg/mL (≈ 56.2 µM)
solubility at 96 h ([8]; aqueous β-cd 20 mg/ml, Solubility of Ipriflavon): 13.5 µg/mL (≈ 48 µM)
solubility at 96 h ([8]; aqueous β-cd 30 mg/ml, Solubility of Ipriflavon): 7.59 µg/mL (≈ 27.1 µM)
solubility at 96 h ([8]; aqueous β-cd 40 mg/ml, Solubility of Ipriflavon): 6.2 µg/mL (≈ 22.1 µM)
solubility at 96 h ([8]; aqueous β-cd 70 mg/ml, Solubility of Ipriflavon): 6.08 µg/mL (≈ 21.7 µM)
solubility at 96 h ([8]; aqueous β-cd 90 mg/ml, Solubility of Ipriflavon): 6.93 µg/mL (≈ 24.7 µM)
solubility at 96 h ([8]; aqueous β-cd 100 mg/ml, Solubility of Ipriflavon): 6.64 µg/mL (≈ 23.7 µM)
solubility at 96 h ([8]; aqueous β-cd 110 mg/ml, Solubility of Ipriflavon): 5.98 µg/mL (≈ 21.3 µM)
solubility at 96 h ([8]; aqueous β-cd 120 mg/ml, Solubility of Ipriflavon): 5.66 µg/mL (≈ 20.2 µM)
solubility at 96 h ([8]; aqueous γ-cd 11 mg/ml, Solubility of Ipriflavon): 2.02 µg/mL (≈ 7.21 µM)
solubility at 96 h ([8]; aqueous γ-cd 13 mg/ml, Solubility of Ipriflavon): 2.05 µg/mL (≈ 7.31 µM)
solubility at 96 h ([8]; aqueous γ-cd 15 mg/ml, Solubility of Ipriflavon): 2.16 µg/mL (≈ 7.71 µM)
solubility at 96 h ([8]; aqueous γ-cd 20 mg/ml, Solubility of Ipriflavon): 2.38 µg/mL (≈ 8.49 µM)
solubility at 96 h ([8]; aqueous γ-cd 30 mg/ml, Solubility of Ipriflavon): 2.74 µg/mL (≈ 9.77 µM)
solubility at 96 h ([8]; aqueous γ-cd solution, Solubility of Ipriflavon): 3.26 µg/mL (≈ 11.6 µM)
solubility at 96 h ([8]; beta-cyclodextrin solution, constant solubility value (solubility limit of the solid inclusion complex in excess Ipriflavon)): 6 µg/mL (≈ 21.4 µM)
solubility at 96 h ([8]; beta-cyclodextrin solution, solubility of Ipriflavon in β-cyclodextrin solution): 16 to 20 µg/mL (≈ 57.1 to 71.3 µM)
solubility at 96 h ([8]; distilled water, water, solubility of Ipriflavon in distilled water): 1 to 2 µg/mL (≈ 3.57 to 7.13 µM)
increase of solubility in β-cyclodextrin solution vs distilled water ([8]; β-cyclodextrin, depending on concentration): ≤ 15 -fold
increase of solubility in γ-cyclodextrin solution ([8]; γ-cyclodextrin): 3 -fold
Plasma-level of unchanged Ipriflavon ([10]; in vivo, po, 25 mg/kg, 10.2 min): 0 µg/mL
Plasma-level of unchanged Ipriflavon ([10]; in vivo, po, 25 mg/kg, 30 min): 0 µg/mL
Plasma-level of unchanged Ipriflavon ([10]; in vivo, po, 25 mg/kg, 60 min): 0 µg/mL
Plasma-level of unchanged Ipriflavon ([10]; in vivo, po, 25 mg/kg, 120 min): 0 µg/mL
Plasma-level of unchanged Ipriflavon ([10]; in vivo, po, 25 mg/kg, 2 h): 0.095 µg/mL
Plasma-level of unchanged Ipriflavon ([10]; in vivo, po, 25 mg/kg, 240 min): 0 µg/mL
concentration at 2 h [10, 11]: 78 ng/mL
concentration at 4 h [10, 11]: 41 ng/mL
Compound: CC(C)Oc1ccc2c(=O)c(-c3ccccc3)coc2c1 [Ipriflavon, 7-isopropoxy-isoflavon]
resorption of the main metabolite ([4]; dog, in vivo, po): 152 ng·h/mL
Ipriflavon in the blood ([4]; dogs, oral): cannot be detected in the blood
solubility in water [6]: 1 to 2 µg/mL
solubility at 96 h ([8]; aqueous α-cd 50 mg/ml, Solubility of Ipriflavon): 10.6 µg/mL (≈ 37.8 µM)
solubility at 96 h ([8]; aqueous β-cd 50 mg/ml, Solubility of Ipriflavon): 5.44 µg/mL (≈ 19.4 µM)
HPLC analysis of the blood ([9]; beagle dogs): metabolites thereof (7-hydroxy-isoflavon as main metabolite) appear in the blood
radioactive material administered discharged with the urine ([9]; dog, in vivo): 12%
detection of unchanged Ipriflavon in plasma ([10]; p.o.): can be detected only in few periods (at 2 and 4 hours)
